Legend:
[1] = system: Anti-CD40-induced colitis; assay: SCID mice colitis by anti-CD40-driven pharmacodynamics study; format: in vivo, C.B17-SCID mice; details: for Colon density / Colon length (cm) / Colon weight: Day 5, mean ± SEM, n = 10
Protocol: This study aimed to obtain the pharmacodynamics of the test article in colitis model by Anti-CD40-driven after oral administration. C.B17-SCID mice obtained from the Zhejiang Vital River Laboratory Animal Technology Co., Ltd. Starting on Day -1 and continuing daily through Day 4, mice (n = 10 per group) were dosed with 0 (vehicle control), 15, 45, or 100 mg/kg PO BID compound 7A in vehicle containing 5% DMSO, 65% PEG400, and 30% DDH2O (v/v/v). In addition, on Day 0, 30 minutes after administration, colitis was induced with a single intraperitoneal injection of 200 µL of anti-CD40 mAb (BE0016-2, BioXcell) in DPBS, the Sham group mice were intraperitoneally injected with 200 µL of DPBS.
Each mouse was scored daily for pathological features, including stool consistency, presence of blood stool, and body weight loss. Individual scores were combined to generate the Disease Activity Index (DAI) which was calculated daily for each mouse, the maximum score was 12. On Day 5, all animals were euthanized, colon was collected for measuring colon index (weight, length, and density).

[2] = system: T cell transfer colitis model; assay: SCID mice colitis by T cell transfer pharmacodynamics study; format: in vivo, C.B17-SCID mice
Protocol: This study aimed to obtain the pharmacodynamics of the test article in T cell transfer colitis model after oral administration. For induction of colitis, naive CD4^+ T cells (CD4^+CD44^lowCD62L^high) were adoptively transferred from MHC-compatible Balb/c mice to C.B17-SCID recipients. Balb/c splenocytes were […] selected for CD4^+ T cells using the Mouse Naïve CD4^+ T Cell Isolation Kit (Cat #19765, […]), 1.5×10^6 cells in a volume of 100 µL PBS were transferred to each recipient by i.v. injection on Day 0. C.B17-SCID mice obtained from the Beijing Vital River Laboratory Animal Technology Co., Ltd. Starting on Day 0 and continuing daily through Day 32, mice (n = 8 per group) were dosed with 0 (vehicle control), 45 mg/kg PO BID compound 7A in a vehicle containing 5% DMSO, 65% PEG400, and 30% DDH2O (v/v/v).
Each mouse was scored three times weekly for pathological features, including stool consistency, and body weight loss. Individual scores were combined to generate the DAI, the maximum score was 6. At the termination of the study, the colon was collected for measuring colon index (weight, length, and density), emptied of fecal contents opened longitudinally along the mesenteric border, and formed a Swiss-Roll from the proximal to the distal end, processed to paraffin-embedded blocks to generate 5-µm-thick sections for hematoxylin and eosin (H&E) staining. Slices were evaluated in a blinded manner and histological scores were assessed based on the following parameters: inflammation, epithelial defects, crypt atrophy, dysplasia, and the area affected by dysplasia.

[3] = Pharmacokinetic study in dogs; format: in vivo; details: dog, plasma; Beagle dogs, intravenous, 2 mg/kg, solution
Protocol: (§1) Pharmacokinetic profiles of test articles were evaluated in fasted mouse, Sprague-Dawley rats and Beagle dogs. After dosing, blood samples were collected at each time point. For IV injection group, time points were set at 5, 15, 30 min, and then 1, 2, 4, 8 and 24 hours after dosing. For oral gavage group,#time points were set at 15, 30 min, and then 1, 2, 4, 8, and 24 hours. Blood was collected into appropriately labeled tubes containing K2EDTA as the anticoagulant. Plasma was obtained within 1 hours of blood collection by centrifugation at 8000×g and 4 °C for 6 minutes, and then stored at -20 °C until analyzed by LC/MS/MS for quantification. PK parameter values, including, but not necessarily limited to, the maximum plasma concentrations (Cmax), the time to reach the maximum concentrations (Tmax), and the area under the plasma concentration vs. time curve (AUC) from time zero to 24-hour (AUC0-24h) were determined using WinNonlin program. Table 17. Pharmacokinetic Parameters in Beagle dogs by Intravenous Administration

[4] = Pharmacokinetic study in mice; format: in vivo; details: mouse, plasma, solution
Protocol: as §1

[5] = 45mpk PO BID, Day 0 through Day 32, mean ± SEM, n = 8

[2H]C([2H])([2H])NC(=O)c1cnc(NC(=O)C2CC2)cc1Nc1cnn2ccc([C@H](O)C(F)(F)F)c(OC)c12 [Example 7A, (S)-6-(cyclopropanecarboxamido)-4-((4-methoxy-5-(2,2,2-trifluoro-1-hydroxyethyl)pyrazolo[1,5-a]pyridin-3-yl)amino)-N-(methyl-d3)nicotinamide]
effect on Anti-CD40-induced colitis ([1]; 15, 45, or 100 mg/kg PO BID, result in words): significant protective effect | Colon density ([1]; 15mpk PO BID): 46.99 ± 2.71 mg/cm | Colon length (cm) ([1]; 15mpk PO BID): 5.61±0.20 cm | Colon weight ([1]; 15mpk PO BID): 260.20 ± 10.58 mg | Colon density ([1]; 45mpk PO BID): 37.00 ± 1.36 mg/cm | Colon length (cm) ([1]; 45mpk PO BID): 6.34±0.13 cm | Colon weight ([1]; 45mpk PO BID): 234.20 ± 9.04 mg | Colon density ([1]; 100mpk PO BID): 29.23 ± 0.91 mg/cm | Colon length (cm) ([1]; 100mpk PO BID): 7.15±0.15 cm | Colon weight ([1]; 100mpk PO BID): 208.40 ± 5.53 mg | body weight loss ([1]; FIG. 1. A, result in words): reduction | DAI score ([1]; FIG. 1. B, result in words): reduction | Colon density [2, 5]: 27.66 ± 1.24 mg/cm | Colon length (cm) [2, 5]: 7.94±0.32 cm | Colon weight [2, 5]: 218.38 ± 10.13 mg | Spleen index [2, 5]: 3.08 ± 0.36 mg/g | disease-related weight loss ([2]; FIG. 2. A, result in words): inhibiting | DAI scores ([2]; FIG. 2. B, result in words): inhibiting | absolute value of Th1 and Th17 cells ([2]; FIG. 3. B-C, result in words): significantly reduced | percentage value of CD4^+T cells and Th17 cells in whole blood ([2]; FIG. 3. D-E, result in words): significantly reduced | CD4^+T cells in colonic tissue ([2]; FIG. 4. A, result in words): significantly reduced | colonic histopathological changes ([2]; FIG. 4. B, result in words): inhibiting | colitis symptoms ([2]; orally twice daily, result in words): alleviated colitis symptoms

[2H]C([2H])([2H])NC(=O)c1cnc(NC(=O)C2CC2)cc1Nc1nn(C)c2ccc([C@H](OC([2H])([2H])[2H])C(F)(F)F)c(OC)c12 [Example 55A, (S)-6-(cyclopropanecarboxamido)-4-((4-methoxy-1-methyl-5-(2,2,2-trifluoro-1-(methoxy-d3)ethyl)-1H-indazol-3-yl)amino)-N-(methyl-d3)nicotinamide]
AUC [3]: 9980 ng·h/mL | Vd [3]: 0.678 L/kg | clearance [3]: 3.52 mL/min/kg | half-life [3]: 3.64 h | AUC ([4]; intravenous, 3 mg/kg): 7600 ng·h/mL | Vd ([4]; intravenous, 3 mg/kg): 0.819 L/kg | clearance ([4]; intravenous, 3 mg/kg): 6.57 mL/min/kg | half-life ([4]; intravenous, 3 mg/kg): 2.57 h | AUC ([4]; oral, 5 mg/kg): 7490 ng·h/mL | Cmax ([4]; oral, 5 mg/kg): 2300 ng/mL | bioavailability ([4]; oral, 5 mg/kg): 59.2% | half-life ([4]; oral, 5 mg/kg): 2.38 h

Source: EP4813463A2, “TYK2 INHIBITORS AND COMPOSITIONS AND METHODS THEREOF” (Lynk Pharmaceuticals Co. Ltd., priority 2023, dated 2024)
